Results published in PubChem BioAssay AID248 (DTP/NCI, 2004).
“And” between values parts separate entries of the source, which are not always exact repeats. Equal entries are not always repeated. Inconclusive results and toxic doses are left out. No stated cut-off is given here; in the data, active means T/C of 150% or more; inactive means T/C below 125%.

Test system: L1210 leukemia ip in BDF1 mice, survival T/C
Experiment: NCI In Vivo Anticancer Drug Screen. Data for tumor model L1210 Leukemia (intraperitoneal) in B6D2F1 (BDF1) mice
Details: endpoint: mean survival time, higher = longer survival
Procedure, shortened: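 Value reflects the ratio of survival in compound-treated mice to survival in vehicle-treated controls, with both groups carrying the same transplanted tumor.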

[1] = dose: 25.0 mg/kg/injection, schedule: Q01DX009 (ip), vehicle: saline with Tween-80
[2] = dose: 50.0 mg/kg/injection, schedule: Q04DX003 (ip), vehicle: saline with Tween-80
[3] = dose: 100.0 mg/kg/injection, schedule: Q04DX003 (ip), vehicle: Klucel (hydroxypropylcellulose) (HPC)
[4] = dose: 200.0 mg/kg/injection, schedule: Q04DX003 (ip), vehicle: Klucel (hydroxypropylcellulose) (HPC)
[5] = dose: 100.0 mg/kg/injection, schedule: Q01DX001 (ip), vehicle: Klucel (hydroxypropylcellulose) (HPC)
[6] = dose: 100.0 mg/kg/injection, schedule: Q01DX009 (ip), vehicle: Klucel (hydroxypropylcellulose) (HPC)
[7] = dose: 200.0 mg/kg/injection, schedule: Q01DX001 (ip), vehicle: Klucel (hydroxypropylcellulose) (HPC)
[8] = dose: 200.0 mg/kg/injection, schedule: Q01DX009 (ip), vehicle: Klucel (hydroxypropylcellulose) (HPC)
[9] = dose: 400.0 mg/kg/injection, schedule: Q04DX003 (ip), vehicle: Klucel (hydroxypropylcellulose) (HPC)
[10] = dose: 100.0 mg/kg/injection, schedule: Q04DX003 (ip), vehicle: saline
[11] = dose: 200.0 mg/kg/injection, schedule: Q04DX003 (ip), vehicle: saline
[12] = dose: 400.0 mg/kg/injection, schedule: Q04DX003 (ip), vehicle: saline
[13] = dose: 100.0 mg/kg/injection, schedule: Q04DX003 (ip), vehicle: saline with Tween-80
[14] = dose: 200.0 mg/kg/injection, schedule: Q04DX003 (ip), vehicle: saline with Tween-80
[15] = dose: 400.0 mg/kg/injection, schedule: Q04DX003 (ip), vehicle: saline with Tween-80
[16] = dose: 100.0 mg/kg/injection, schedule: Q01DX009 (ip), vehicle: saline
[17] = dose: 100.0 mg/kg/injection, schedule: Q01DX001 (ip), vehicle: saline
[18] = dose: 200.0 mg/kg/injection, schedule: Q01DX001 (ip), vehicle: saline
[19] = dose: 400.0 mg/kg/injection, schedule: Q01DX001 (ip), vehicle: saline
[20] = dose: 50.0 mg/kg/injection, schedule: Q01DX001 (ip), vehicle: carboxymethylcellulose (CMC)
[21] = dose: 100.0 mg/kg/injection, schedule: Q01DX001 (ip), vehicle: carboxymethylcellulose (CMC)
[22] = dose: 200.0 mg/kg/injection, schedule: Q01DX001 (ip), vehicle: carboxymethylcellulose (CMC)
[23] = dose: 400.0 mg/kg/injection, schedule: Q01DX009 (ip), vehicle: Klucel (hydroxypropylcellulose) (HPC)
[24] = dose: 50.0 mg/kg/injection, schedule: Q01DX001 (ip), vehicle: saline
[25] = dose: 100.0 mg/kg/injection, schedule: Q01DX009 (ip), vehicle: saline with Tween-80
[26] = dose: 200.0 mg/kg/injection, schedule: Q01DX009 (ip), vehicle: saline
[27] = dose: 400.0 mg/kg/injection, schedule: Q01DX009 (ip), vehicle: saline
[28] = dose: 75.0 mg/kg/injection, schedule: Q01DX001 (ip), vehicle: saline
[29] = dose: 150.0 mg/kg/injection, schedule: Q01DX001 (ip), vehicle: saline

Measured: T/C

CCCCCCCCCCCCOCCCN
inactive: dose: 12.5 mg/kg/injection, schedule: Q01DX009 (ip), vehicle: saline with Tween-80 98 % of control | dose: 12.5 mg/kg/injection, schedule: Q04DX003 (ip), vehicle: saline with Tween-80 92 % of control | [1] 90 % of control | dose: 25.0 mg/kg/injection, schedule: Q04DX003 (ip), vehicle: saline with Tween-80 90 % of control | [2] 92 % of control

CC(=O)NN1C(=O)c2ccccc2C1=O
inactive: dose: 50.0 mg/kg/injection, schedule: Q04DX003 (ip), vehicle: Klucel (hydroxypropylcellulose) (HPC) 97 % of control | [3] 104 % of control | [4] 101 % of control

CC(=O)NCCCOc1ccc([N+](=O)[O-])cc1Cl
inactive: [5] 100 % of control | [6] 102 % of control | [3] 101 % of control | [7] 101 % of control | [8] 110 % of control and 112 % of control | [4] 113 % of control | [9] 103 % of control

OCC1(CO)CCCCO1
inactive: [10] 96 % of control | [11] 95 % of control | [12] 101 % of control

C[Si](C)(C)Oc1cccc(O[Si](C)(C)C)c1
inactive: [13] 95 % of control | [14] 96 % of control | [15] 93 % of control

CC[As](=O)(O)c1ccccc1
inactive: dose: 6.25 mg/kg/injection, schedule: Q01DX009 (ip), vehicle: saline 89 % of control | dose: 12.5 mg/kg/injection, schedule: Q01DX009 (ip), vehicle: saline 89 % of control

CC(C)(C)CC(C)(C)c1ccc(OCCO)cc1
inactive: dose: 50.0 mg/kg/injection, schedule: Q01DX009 (ip), vehicle: saline 97 % of control | [16] 91 % of control | [10] 107 % of control | [11] 101 % of control

CC(C(=O)c1cc(O)c(O)cc1C(O)(C(F)(F)F)C(F)(F)F)C(O)(C(F)(F)F)C(F)(F)F (centres undefined)
inactive: [13] 102 % of control | [14] 98 % of control | [15] 98 % of control

Cc1ccc(C(C)C)c(OC(=O)Nc2ccc(S(=O)(=O)NC3CCCCC3)cc2)c1
inactive: [17] 94 % of control | [18] 96 % of control | [19] 94 % of control

COc1cc(C=Nc2ccc(Cl)cc2)ccc1N(CCCl)CCCl
inactive: dose: 21.0 mg/kg/injection, schedule: Q01DX015 (ip), vehicle: carboxymethylcellulose (CMC) 110 % of control | dose: 36.0 mg/kg/injection, schedule: Q01DX015 (ip), vehicle: carboxymethylcellulose (CMC) 95 % of control | [20] 120 % of control | [21] 108 % of control | dose: 133.0 mg/kg/injection, schedule: Q01DX001 (ip), vehicle: carboxymethylcellulose (CMC) 107 % of control | [22] 117 % of control

O=c1n(CCCl)c(=O)n(CCCl)c(=O)n1CCCl
inactive: [2] 103 % of control | [13] 88 % of control | [14] 96 % of control and 87 % of control | [15] 98 % of control

CCCCCCCCCCCCCCCC(=O)O
inactive: [6] 100 % of control | [3] 98 % of control | [8] 92 % of control | [4] 98 % of control | [23] 97 % of control | [9] 97 % of control

COB(OC)OC
inactive: [24] 98 % of control | [17] 95 % of control | [18] 101 % of control | [19] 95 % of control

CCC(c1ccc(OC)cc1)C(CC)c1ccc(O)c(CN2CCN(C)CC2)c1 (centres undefined)
inactive: [13] 94 % of control | [14] 94 % of control | [15] 94 % of control

C[N+](C)(C)Cc1c(CC(O)(c2ccccc2)c2ccccc2)ccc2ccccc12
inactive: [20] 102 % of control | [21] 94 % of control

Nc1nc(NCCCc2ccccc2)c(N)c(=O)[nH]1
inactive: [1] 94 % of control | dose: 50.0 mg/kg/injection, schedule: Q01DX009 (ip), vehicle: saline with Tween-80 92 % of control | [25] 92 % of control and 97 % of control

Br[C](Br)(Br)[Hg][c]1ccccc1
inactive: dose: 6.0 mg/kg/injection, schedule: Q01DX009 (ip), vehicle: Klucel (hydroxypropylcellulose) (HPC) 98 % of control | dose: 12.5 mg/kg/injection, schedule: Q01DX009 (ip), vehicle: Klucel (hydroxypropylcellulose) (HPC) 93 % of control | dose: 12.5 mg/kg/injection, schedule: Q04DX003 (ip), vehicle: Klucel (hydroxypropylcellulose) (HPC) 110 % of control | dose: 25.0 mg/kg/injection, schedule: Q01DX009 (ip), vehicle: Klucel (hydroxypropylcellulose) (HPC) 87 % of control | dose: 25.0 mg/kg/injection, schedule: Q04DX003 (ip), vehicle: Klucel (hydroxypropylcellulose) (HPC) 95 % of control

COC(=O)C1CC2(Br)C(Br)=C(Br)C1(Br)C2(Br)Br (centres undefined)
inactive: [17] 88 % of control | [16] 102 % of control | [18] 100 % of control | [26] 98 % of control | [19] 88 % of control | [27] 91 % of control

Cc1ccc(Cl)cc1NC(=O)COc1ccc(Cl)cc1
inactive: [6] 88 % of control | [3] 98 % of control | [8] 94 % of control | [4] 88 % of control | [23] 91 % of control | [9] 103 % of control

O=C(O)C1(NO)CCCC1
inactive: [24] 102 % of control | [17] 121 % of control | [19] 110 % of control

O=C1NCN(c2ccccc2)C12CCN(CCCS(=O)(=O)c1ccccc1)CC2
inactive: [5] 93 % of control | [7] 94 % of control | dose: 400.0 mg/kg/injection, schedule: Q01DX001 (ip), vehicle: Klucel (hydroxypropylcellulose) (HPC) 101 % of control

O=C(Sc1ccccc1)C1OC1(c1ccccc1)c1ccccc1 (centres undefined)
inactive: [3] 97 % of control | [4] 88 % of control

O=C(CCl)N1c2ccccc2Oc2cc3ccccc3cc21
inactive: [16] 100 % of control | [10] 95 % of control | [26] 90 % of control | [11] 101 % of control | [27] 92 % of control | [12] 92 % of control

CCOc1ccc(NC(C)=O)c(O)c1
inactive: [28] 101 % of control | [29] 98 % of control

CCOC(=O)c1ccc(NC(=S)NC(=O)c2ccccc2)cc1
inactive: dose: 100.0 mg/kg/injection, schedule: Q04DX002 (ip), vehicle: saline with Tween-80 100 % of control | dose: 200.0 mg/kg/injection, schedule: Q04DX002 (ip), vehicle: saline with Tween-80 94 % of control

COc1nc2ccccc2nc1N1CC1
inactive: dose: 26.0 mg/kg/injection, schedule: Q01DX009 (ip), vehicle: acetone 103 % of control | dose: 40.0 mg/kg/injection, schedule: Q01DX009 (ip), vehicle: acetone 101 % of control | dose: 60.0 mg/kg/injection, schedule: Q01DX009 (ip), vehicle: acetone 108 % of control | dose: 90.0 mg/kg/injection, schedule: Q01DX009 (ip), vehicle: acetone 101 % of control | dose: 135.0 mg/kg/injection, schedule: Q01DX009 (ip), vehicle: acetone 121 % of control

CCOC1(c2ccccc2)C(c2ccccc2)N1C(=O)c1ccc([N+](=O)[O-])cc1 (centres undefined)
inactive: [3] 92 % of control | [4] 91 % of control | [9] 92 % of control

CC(C)(CNC1CCCC1)OC(=O)c1ccccc1
inactive: [28] 97 % of control and 95 % of control | [29] 107 % of control

CCNC(=O)N(C)Cc1ccc(Cl)cc1
inactive: [25] 88 % of control | dose: 200.0 mg/kg/injection, schedule: Q01DX009 (ip), vehicle: saline with Tween-80 95 % of control

O=C1C(Br)=C(C2CCCCC2)C(=O)c2ccccc21
inactive: [20] 97 % of control | [21] 116 % of control | [22] 103 % of control

CC(=O)Nc1nc(C)c(CCCNS(=O)(=O)c2ccc(N)cc2)c(=O)[nH]1
inactive: dose: 25.0 mg/kg/injection, schedule: Q01DX001 (ip), vehicle: Klucel (hydroxypropylcellulose) (HPC) 102 % of control | dose: 50.0 mg/kg/injection, schedule: Q01DX001 (ip), vehicle: Klucel (hydroxypropylcellulose) (HPC) 92 % of control | [5] 95 % of control
